# Results taken from patent US20220370486A1, “COMBINATION TREATMENT OF SYSTEMIC FUNGAL INFECTIONS” (The Board of Trustees of the University of Illinois, priority 2019, published 2022).
# pKd: −log10 of the molar value. Like-named read-outs stand apart in the source and are kept apart here.
# Tests used:
# [1] = UV-Vis and PCA based sterol sponge binding assay; settings: apparent KD, sterol sponge aggregates in vitro
# From the text: However, an alternative method was developed for reproducible formation of homogenous AmB and C2′epiAmB sterol sponge aggregates in vitro. Using these preparations, a quantitative UV-Vis and Principle Component (PCA) based assay for determining the apparent Kis for the binding of AmB and C2′epiAmB to ergosterol and cholesterol (FIGS. 2A-2D) was developed.
# Candida albicans SN250 = assay: MIC against Candida albicans SN250; type: cell-based
# yeast cells = assay: Antifungal activity after ergosterol pre-complexation of the sponge; type: cell-based; settings: sponge pre-complexed with ergosterol
# From the text: Anderson, T. M. et al., Nat Chem Biol 2014, 10 (5), 400-6. […] Davis, S. A., et al., Nat Chem Biol 2015, 11 (7), 481-7. To test whether C2′epiAmB primarily kills cells via the same sterol sponge mechanism, the C2′epiAmB sponge was similarly pre-complexed with ergosterol. […] Thus, C2′epiAmB similarly kills yeast primarily via sterol binding, and, by extension, the new compounds targeted in this application are expected to have a similar barrier to fungal resistance that has been observed for the past 50+years with AmB.
# A. flavus SC 1085986 = assay: Checkerboard broth microdilution (CLSI); type: cell-based; settings: isolate 1085986; for MIC: Aspergillus flavus, single agent
# Description: (§1) Isolates were tested against varying concentrations of amphotericin B and C2′epiAmB (range, 0.06 to 4 mg/L) and combined with fluconazole (range, 0.12 to 128 mg/L) or ketoconazole (range 0.008 to 8 mg/L) or voriconazole (range, 0.004 to 4 mg/L) using a checkerboard grid design following the Clinical and Laboratory Standards Institute (CLSI) broth microdilution method (M23Ed5).
# F. oxysporum SC 1087597 = assay: Checkerboard broth microdilution (CLSI); type: cell-based; settings: isolate 1087597; for MIC: Fusarium oxysporum, single agent
# Description: as §1
# A. flavus ATCC 204304 = assay: Checkerboard broth microdilution (CLSI); type: cell-based; settings: isolate ATCC 204304; for MIC: Aspergillus flavus, ATCC204304, single agent
# Description: as §1
# C. parapsilosis 1048737 = assay: Checkerboard broth microdilution (CLSI); type: cell-based; settings: isolate 1048737; for MIC: single agent
# Description: as §1
# C. tropicalis 1046709 = assay: Checkerboard broth microdilution (CLSI); type: cell-based; settings: isolate 1046709; for MIC: Candida tropicalis, single agent
# Description: as §1
# C. krusei 975691 = assay: Checkerboard broth microdilution (CLSI); type: cell-based
# Description: as §1
# C. auris 1081160 = assay: Checkerboard broth microdilution (CLSI); type: cell-based; settings: isolate 1081160; for MIC: Candidozyma auris, single agent
# Description: as §1
# A. fumigatus 1077391 = assay: Checkerboard broth microdilution (CLSI); type: cell-based; settings: isolate 1077391; for MIC: Aspergillus fumigatus, single agent
# Description: as §1
# C. krusei ATCC 6258 = assay: Checkerboard broth microdilution (CLSI); type: cell-based; settings: isolate ATCC 6258
# Description: as §1
# [2] = system: A. fumigatus ATCC MYA-3626; assay: Checkerboard broth microdilution (CLSI); type: cell-based; settings: isolate ATCC MYA-3626; for MIC: single agent
# Description: as §1
# F. solani SC 1047542 = assay: Checkerboard broth microdilution (CLSI); type: cell-based; settings: isolate 1047542; for MIC: Fusarium solani, single agent
# Description: as §1
# C. albicans 967374 = assay: Checkerboard broth microdilution (CLSI); type: cell-based; settings: isolate 967374; for MIC: single agent
# Description: as §1
# C. glabrata 1046695 = assay: Checkerboard broth microdilution (CLSI); type: cell-based; settings: isolate 1046695; for MIC: Nakaseomyces glabratus, single agent
# Description: as §1
# [3] = system: C. parapsilosis ATCC 22019; assay: Checkerboard broth microdilution (CLSI); type: cell-based; settings: isolate ATCC 22019
# Description: as §1
# yeast = assay: Activity against yeast; type: cell-based
# From the text: (§2) This key discovery opened a path to the rational development of a non-toxic AmB variant. To probe its predicted role in sterol binding, the hydroxyl group was synthetically deleted at the C2′ position on the mycosamine appendage.
# human red blood cells = assay: Toxicity to human red blood cells; type: cell-based
# From the text: as §2
# (§3) In each case, C2′epiAmB is non-toxic to human red blood cells, primary hREC, mice, and rats up to the highest dose tested.
# [4] = Isothermal titration calorimetry (ITC) sterol binding
# From the text: as §2
# A practical 11-step synthesis of C2′epiAmB using a frontier site-selective acylation method was developed. Wilcock, B. C. et al., Nat Chem 2012, 4 (12), 996-1003; Uno, B. E. A synthesis enabled understanding of Amphotericin B leading to derivatives with improved therapeutic indices. University of Illinois at Urbana-Champaign, 2014. The sterol binding and cell killing activities was then determined.
# primary hREC = assay: Toxicity to primary hREC; type: cell-based, human
# From the text: as §2, §3
# [5] = Lodderomyces parapsilosis, read-out: MIC
# [6] = Pichia kudriavzevii, single agent, isolate 975691, read-out: MIC
# [7] = Pichia kudriavzevii, ATCC6258, single agent, read-out: MIC
# [8] = Aspergillus fumigatus, read-out: MIC
# [9] = Candida albicans, read-out: MIC
# [10] = Lodderomyces parapsilosis, ATCC22019, single agent, read-out: MIC
smiles,measurement,setting,value
"C[C@@H]1[C@H](O)[C@@H](C)/C=C/C=C/C=C/C=C/C=C/C=C/C=C/[C@H](O[C@@H]2O[C@H](C)[C@@H](O)[C@H](N)[C@@H]2O)C[C@@H]2O[C@](O)(C[C@@H](O)C[C@@H](O)[C@H](O)CC[C@@H](O)C[C@@H](O)CC(=O)O[C@H]1C)C[C@H](O)[C@H]2C(=O)O [AmB, Amphotericin B]",pKd,"[1]; read-out: KD,chol",6.08
same,pKd,"[1]; read-out: KD,erg",6.92
same,MIC,Candida albicans SN250,0.15 µM
same,change of potency upon ergosterol pre-complexation,yeast cells,same reduction in potency
same,MIC,A. flavus SC 1085986,2 µg/mL
same,MIC when added 1 log2 unit lower of azoles' MIC,A. flavus SC 1085986; with ketoconazole,1 mg/L
same,MIC when added 1 log2 unit lower of azoles' MIC,A. flavus SC 1085986; with voriconazole,2 mg/L
same,MIC,F. oxysporum SC 1087597,2 µg/mL
same,MIC when added 1 log2 unit lower of azoles' MIC,F. oxysporum SC 1087597; with ketoconazole,0.06 mg/L
same,MIC when added 1 log2 unit lower of azoles' MIC,F. oxysporum SC 1087597; with voriconazole,2 mg/L
same,MIC,A. flavus ATCC 204304,1 µg/mL
same,MIC when added 1 log2 unit lower of azoles' MIC,A. flavus ATCC 204304; with ketoconazole,1 mg/L
same,MIC when added 1 log2 unit lower of azoles' MIC,A. flavus ATCC 204304; with voriconazole,0.5 mg/L
same,MIC,C. parapsilosis 1048737; [5],0.5 µg/mL
same,MIC when added 1 log2 unit lower of azoles' MIC,C. parapsilosis 1048737; with fluconazole,0.25 mg/L
same,MIC when added 1 log2 unit lower of azoles' MIC,C. parapsilosis 1048737; with ketoconazole,0.25 mg/L
same,MIC when added 1 log2 unit lower of azoles' MIC,C. parapsilosis 1048737; with voriconazole,0.25 mg/L
same,MIC,C. tropicalis 1046709,0.5 µg/mL
same,MIC when added 1 log2 unit lower of azoles' MIC,C. tropicalis 1046709; with fluconazole,0.25 mg/L
same,MIC when added 1 log2 unit lower of azoles' MIC,C. tropicalis 1046709; with ketoconazole,0.5 mg/L
same,MIC when added 1 log2 unit lower of azoles' MIC,C. tropicalis 1046709; with voriconazole,0.5 mg/L
same,MIC,C. krusei 975691; [6],1 µg/mL
same,MIC,"C. krusei 975691; single agent, isolate 975691",0.5 µg/mL
same,MIC when added 1 log2 unit lower of azoles' MIC,"C. krusei 975691; with fluconazole, isolate 975691",0.5 mg/L
same,MIC when added 1 log2 unit lower of azoles' MIC,"C. krusei 975691; with ketoconazole, isolate 975691",0.5 mg/L
same,MIC when added 1 log2 unit lower of azoles' MIC,"C. krusei 975691; with voriconazole, isolate 975691",0.5 mg/L
same,MIC,C. auris 1081160; read-out: MIC,1 µg/mL
same,MIC when added 1 log2 unit lower of azoles' MIC,C. auris 1081160; with fluconazole,0.06 mg/L
same,MIC when added 1 log2 unit lower of azoles' MIC,C. auris 1081160; with ketoconazole,1 mg/L
same,MIC when added 1 log2 unit lower of azoles' MIC,C. auris 1081160; with voriconazole,1 mg/L
same,MIC,A. fumigatus 1077391,1 µg/mL
same,MIC when added 1 log2 unit lower of azoles' MIC,A. fumigatus 1077391; with ketoconazole,0.06 mg/L
same,MIC when added 1 log2 unit lower of azoles' MIC,A. fumigatus 1077391; with voriconazole,1 mg/L
same,MIC,C. krusei ATCC 6258; [7],0.5 µg/mL
same,MIC,C. krusei ATCC 6258; single agent,1 µg/mL
same,MIC when added 1 log2 unit lower of azoles' MIC,C. krusei ATCC 6258; with fluconazole,0.5 mg/L
same,MIC when added 1 log2 unit lower of azoles' MIC,C. krusei ATCC 6258; with ketoconazole,0.5 mg/L
same,MIC when added 1 log2 unit lower of azoles' MIC,C. krusei ATCC 6258; with voriconazole,0.5 mg/L
same,MIC,[2]; [8],1 µg/mL
same,MIC when added 1 log2 unit lower of azoles' MIC,[2]; with ketoconazole,2 mg/L
same,MIC when added 1 log2 unit lower of azoles' MIC,[2]; with voriconazole,1 mg/L
same,MIC,F. solani SC 1047542,2 µg/mL
same,MIC when added 1 log2 unit lower of azoles' MIC,F. solani SC 1047542; with ketoconazole,0.06 mg/L
same,MIC when added 1 log2 unit lower of azoles' MIC,F. solani SC 1047542; with voriconazole,2 mg/L
same,MIC,C. albicans 967374; [9],0.5 µg/mL
same,MIC,C. albicans 967374,1 µg/mL
same,MIC when added 1 log2 unit lower of azoles' MIC,C. albicans 967374; with fluconazole,0.5 mg/L
same,MIC when added 1 log2 unit lower of azoles' MIC,C. albicans 967374; with ketoconazole,0.5 mg/L
same,MIC when added 1 log2 unit lower of azoles' MIC,C. albicans 967374; with voriconazole,0.5 mg/L
same,MIC,C. glabrata 1046695; read-out: MIC,0.5 µg/mL
same,MIC when added 1 log2 unit lower of azoles' MIC,C. glabrata 1046695; with fluconazole,0.5 mg/L
same,MIC when added 1 log2 unit lower of azoles' MIC,C. glabrata 1046695; with ketoconazole,0.06 mg/L
same,MIC when added 1 log2 unit lower of azoles' MIC,C. glabrata 1046695; with voriconazole,0.5 mg/L
same,MIC when added 1 log2 unit lower of azoles' MIC,[3]; with fluconazole,0.25 mg/L
same,MIC when added 1 log2 unit lower of azoles' MIC,[3]; with ketoconazole,0.25 mg/L
same,MIC when added 1 log2 unit lower of azoles' MIC,[3]; with voriconazole,0.5 mg/L
CC1C=CC=CC=CC=CC=CC=CC=CC(OC2CC(N)C(O)C(C)O2)CC2OC(O)(CC(O)CC(O)C(O)CCC(O)CC(O)CC(=O)OC(C)C(C)C1O)CC(O)C2C(=O)O (stereo not shown) [C2′deOAmB],activity against yeast,yeast,retained good activity
same,toxicity to human red blood cells,human red blood cells,nontoxic
same,binding of ergosterol by ITC,[4],bind ergosterol
same,binding of cholesterol by ITC,[4]; within the detection limits of ITC,not cholesterol
same,toxicity to primary hREC,primary hREC,nontoxic
"OC(Cn1cncn1)(Cn1cncn1)c1ccc(F)cc1F [Fluconazole, fluconazole]",MIC,C. parapsilosis 1048737; [5],0.5 µg/mL
same,MIC,C. parapsilosis 1048737,1 µg/mL
same,MIC,C. tropicalis 1046709,4 µg/mL
same,MIC,C. krusei 975691; Pichia kudriavzevii,128 µg/mL
same,MIC,C. auris 1081160,> 128 µg/mL
same,MIC,C. krusei ATCC 6258; [7],32 µg/mL
same,MIC,C. albicans 967374; [9],16 µg/mL
same,MIC,C. glabrata 1046695,128 µg/mL
same,MIC,[3]; [10],1 µg/mL
same,MIC,[3]; single agent,2 µg/mL
"CC(=O)N1CCN(c2ccc(OCC3COC(Cn4ccnc4)(c4ccc(Cl)cc4Cl)O3)cc2)CC1 (stereo not shown) [Ketoconazole, ketoconazole]",MIC,A. flavus SC 1085986,4 µg/mL
same,MIC,F. oxysporum SC 1087597,> 8 µg/mL
same,MIC,A. flavus ATCC 204304,2 µg/mL
same,MIC,C. parapsilosis 1048737; [5],0.015 µg/mL
same,MIC,C. parapsilosis 1048737,0.03 µg/mL
same,MIC,C. tropicalis 1046709,0.12 µg/mL
same,MIC,C. krusei 975691; [6],1 µg/mL
same,MIC,"C. krusei 975691; single agent, isolate 975691",2 µg/mL
same,MIC,C. auris 1081160; read-out: MIC,0.5 µg/mL
same,MIC,A. fumigatus 1077391,> 8 µg/mL
same,MIC,C. krusei ATCC 6258; [7],0.25 µg/mL
same,MIC,[2]; [8],8 µg/mL
same,MIC,[2],>8 µg/mL
same,MIC,F. solani SC 1047542,> 8 µg/mL
same,MIC,C. albicans 967374; [9],0.25 µg/mL
same,MIC,C. glabrata 1046695; read-out: MIC,4 µg/mL
same,MIC,[3]; [10],0.06 µg/mL
"C[C@@H](c1ncncc1F)[C@](O)(Cn1cncn1)c1ccc(F)cc1F [Voriconazole, voriconazole]",MIC,A. flavus SC 1085986,1 µg/mL
same,MIC,F. oxysporum SC 1087597,4 µg/mL
same,MIC,A. flavus ATCC 204304,1 µg/mL
same,MIC,C. parapsilosis 1048737; [5],0.008 µg/mL
same,MIC,C. parapsilosis 1048737,0.015 µg/mL
same,MIC,C. tropicalis 1046709,0.12 µg/mL
same,MIC,C. krusei 975691; [6],4 µg/mL
same,MIC,C. auris 1081160; read-out: MIC,1 µg/mL
same,MIC,A. fumigatus 1077391,2 µg/mL
same,MIC,C. krusei ATCC 6258; [7],0.25 µg/mL
same,MIC,[2]; [8],0.5 µg/mL
same,MIC,F. solani SC 1047542,4 µg/mL
same,MIC,C. albicans 967374; [9],0.25 µg/mL
same,MIC,C. glabrata 1046695; read-out: MIC,4 µg/mL
same,MIC,[3]; [10],0.03 µg/mL
